Activity calls are given as the source filed them. How the calls were made is not given here. Some results are limits rather than exact numbers.

The target of the assay is Chaperone protein DnaK (Escherichia coli (strain K12)) (UniProt P0A6Y8). Put plainly: E. coli DnaK SBD ligand binding – biophysical, NMR, chaperone (AID 1033). The note with it: Purified DnaK SBD.
Chain of Chaperone protein DnaK (Escherichia coli (strain K12)) (P0A6Y8 whole entry, looked up): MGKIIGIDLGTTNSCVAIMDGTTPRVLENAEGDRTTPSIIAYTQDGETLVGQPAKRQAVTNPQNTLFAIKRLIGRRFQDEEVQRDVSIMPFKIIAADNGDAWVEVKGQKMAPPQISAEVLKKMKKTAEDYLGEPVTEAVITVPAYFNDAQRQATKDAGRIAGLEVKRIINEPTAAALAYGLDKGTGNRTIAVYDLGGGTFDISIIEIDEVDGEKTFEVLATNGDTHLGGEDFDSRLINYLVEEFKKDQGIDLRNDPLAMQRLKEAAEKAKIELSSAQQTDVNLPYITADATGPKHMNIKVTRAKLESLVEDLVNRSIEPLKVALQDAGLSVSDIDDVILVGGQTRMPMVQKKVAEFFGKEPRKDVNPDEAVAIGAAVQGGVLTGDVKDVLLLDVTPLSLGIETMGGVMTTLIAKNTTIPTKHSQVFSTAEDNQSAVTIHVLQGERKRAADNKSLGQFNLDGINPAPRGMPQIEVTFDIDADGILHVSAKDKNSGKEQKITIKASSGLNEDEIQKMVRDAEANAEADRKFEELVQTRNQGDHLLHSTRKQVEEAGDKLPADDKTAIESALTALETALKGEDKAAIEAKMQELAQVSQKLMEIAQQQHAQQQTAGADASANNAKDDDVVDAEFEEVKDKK
As to `c1cnc(N2CCNCC2)nc1`, the Kd was > 4 mM (inactive).

For the molecule `CN1CCN(C(=S)c2ccc(N(C)C)cc2)CC1`, the Kd is > 4 mM (inactive).

Turning to `Cn1c(O)c(C=NCC2CCNCC2)c(=O)n(C)c1=O`, the Kd is > 4 mM (inactive).

As to `Nc1ncnc2c1ncn2CCN1CCOCC1`, the Kd is > 4 mM (inactive).

For the molecule `O=C(O)c1cccnc1-c1nc2ccccc2s1`, the Kd was > 4 mM (inactive).

Take `Cc1nc2ccccc2c(=O)n1/N=C/c1ccncc1`: the Kd is > 4 mM (inactive).

For the molecule `O=C(Nc1ccc2c(c1)OCO2)c1c(F)cccc1F`, the Kd was > 4 mM (inactive).

For the molecule `O=C(O)c1ccc(CSc2ncn[nH]2)cc1`, the Kd is > 4 mM (inactive).

Turning to `COc1ccc2c(c1)OC[C@@H](Cc1ccc(OC)c(OC)c1)[C@@H]2O`, the Kd was > 4 mM (inactive).

Take `Nc1ccccc1-n1cccn1`: the Kd was > 4 mM (inactive).

Take `COCCn1cnc2cc(C)c(C)cc21`: the Kd is > 4 mM (inactive).

Regarding `N#Cc1cnn2c(C(F)(F)F)cc(C(F)(F)F)nc12`, the Kd was > 4 mM (inactive).

For `COc1ccc(/C=C2/NC(=S)NC2=O)cc1`, the Kd was > 4 mM (inactive).

Regarding `CCOC(=O)c1c(C)nc2c(C#N)cnn2c1C`, the Kd was > 4 mM (inactive).

Regarding `CC(=O)NC(C)C12CC3CC(CC(C(=O)O)(C3)C1)C2` (stereo not drawn), the Kd is > 4 mM (inactive).

On to `O=c1[nH]cc(NCc2ccccc2)c(=O)[nH]1`, for which the Kd is > 4 mM (inactive).

Take `CC(=O)NC(O)C(=O)c1cccs1` (stereo not drawn): the Kd is > 4 mM (inactive).

As for `CC(=O)Nc1c(C#N)c(C(C)(C)C)cn1C`, the Kd was > 4 mM (inactive).

With `CCSc1nc(C)c(CC)c(C)c1C(N)=O`, the Kd was > 4 mM (inactive).

Consider `CC(=O)NCC1(c2ccccc2)CCOCC1`, for which the Kd is > 4 mM (inactive).

Consider `Nc1nc(NCc2ccco2)nn1-c1ccccc1`, for which the Kd is > 4 mM (inactive).

Regarding `CC(=O)Nc1ccccc1OCC(N)=O`, the Kd was > 4 mM (inactive).

With `CCOC(=O)N1CCN(c2ncnc3c2cnn3C)CC1`, the Kd is > 4 mM (inactive).

Turning to `Cn1cc(Cl)c(C(=O)Nc2ccncc2)n1`, the Kd was > 4 mM (inactive).

On to `C=CC(C1=CC(=O)C(OC)=CC1=O)c1ccccc1` (stereo not drawn), for which the Kd is > 4 mM (inactive).

Consider `O=C(NC1CCS(=O)(=O)C1)c1ccccc1` (stereo not drawn), for which the Kd was > 4 mM (inactive).

Consider `O=C1CCCc2c1nc(-c1ccccc1)n2O`, for which the Kd is > 4 mM (inactive).

Regarding `Cc1oc(S(=O)(=O)N2CCCCC2)cc1C(=O)O`, the Kd was > 4 mM (inactive).

With `Nc1ccccc1C(=O)N1CCOCC1`, the Kd is > 4 mM (inactive).

With `Cc1ccc(S(=O)(=O)CCc2ccccn2)cc1`, the Kd was > 4 mM (inactive).

Regarding `Clc1ccccc1OCc1nc(-c2ccccn2)no1`, the Kd was > 4 mM (inactive).

`O=C(NCc1cccs1)c1nn2cccnc2c1Cl`: the Kd is > 4 mM (inactive).

Turning to `CC(=O)NCc1nc2ccccc2[nH]1`, the Kd is > 4 mM (inactive).

Regarding `CC(C)(C)C(=O)Nc1ncc(C(F)(F)F)cc1Cl`, the Kd is > 4 mM (inactive).

Take `NC(=O)C1CCN(C(=S)c2ccccc2)CC1`: the Kd was > 4 mM (inactive).

With `O=C(Nc1ccccn1)C(=O)N1CCCC1`, the Kd was > 4 mM (inactive).

With `Nc1cc(-c2ccco2)[nH]n1`, the Kd is > 4 mM (inactive).

As to `CC12CN3CC(C)(CN(C1)C3c1cccs1)C2O` (stereo not drawn), the Kd is > 4 mM (inactive).

On to `O=C(O)c1ccc(-n2cccc2)cc1`, for which the Kd was > 4 mM (inactive).

Turning to `CN(C)c1ccc(/C=C2/NC(=S)NC2=O)cc1`, the Kd is > 4 mM (inactive).

For `Cc1ccc(C(=O)N2CC(=O)NC(=O)C2)cc1`, the Kd is > 4 mM (inactive).

On to `Cn1nc(C(=O)NCc2cccnc2)c2ccccc2c1=O`, for which the Kd was > 4 mM (inactive).

In the case of `CC(=O)Nc1ccc(NC(=O)C2CC2)cc1`, the Kd is > 4 mM (inactive).

(Values after PubChem BioAssay AID1033 (Sanford-Burnham Center for Chemical Genomics, 2008).)
